This test concerns pressurized cerebral arteries from β1-knockout (KCNMB1-knockout) mice. Description: Artery diameter measurement, pressurized cerebral arteries from BK β1-knockout mice. Also on record: species or system mouse. The following applies: 55 nM. Here is the method: Artery Diameter Measurement. Middle cerebral arteries were isolated from adult male Sprague-Dawley rats (=250 g) or 8- to 12-week-old β1-knockout and C57BL/6 control mice. Rats and mice were decapitated using a guillotine and sharp scissors, respectively. These procedures were approved by the Institutional Animal Care and Use Committee from The University of Tennessee Health Science Center, an AMLAC-accredited institution. Pressurization of arteries was performed as described (Liu et al., 2004). Endothelium was removed by passing an air bubble into the vessel lumen for 90 sec. Diameter changes were monitored through an inverted microscope (Nikon Eclipse TS100, Nikon Corp., Tokyo, Japan), recorded on camera (Sanyo VCB-3512T, Sanyo Electric Corp., Japan), and transferred to a computer. Diameter data were acquired and analyzed using IonWizard 4.4 software (IonOptics Corp., Milton, Mass., United States of America). […]
Data Analysis. […] Arterial diameter and electrophysiological data were analyzed with IonWizard 4.4 (IonOptics Corp., Milton, Mass., United States of America) and pCLAMP 8.0 (Molecular Devices, Union City, Calif., United States of America). […]
To determine the impact of LC targeting of BK β1-subunits on organ function, LC action on the arterial diameter of pressurized cerebral arteries was evaluated from β1-knockout vs. wt C57BU6 mice (controls). […]

Regarding “iberiotoxin (QFTDVDCSVSKECWSVCKDLFGVDRGKCMGKKCRCYQ; UniProt P24663 1-37, looked up) [Ibtx, reference compound]”, the Decrease in diameter was −2.25±0.44%.

Source of the values: US20080200439A1, “Methods and compositions for modulating BK channel activity and vasodilation” (University of Tennessee Research Foundation, priority 2006, published 2008).
